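1) Cells in 96-well plates. 2) Compound, 48 h, 5 concentrations. 3) Linear interpolation between surrounding doses. 4) Unreached endpoint = highest concentration. The concentration for 50% growth inhibition is given as GI50. TGI marks complete inhibition of growth.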
Columns and labels:
Experiment in all cases: NCI-60 cell line screen, 48 h
HOP-92 NSCLC = test system: HOP-92 NSCLC
OVCAR-5 ovarian = test system: OVCAR-5 ovarian
SR leukemia = test system: SR leukemia
IGROV1 ovarian = test system: IGROV1 ovarian
SF-295 CNS = test system: SF-295 CNS
HCT-15 colon = test system: HCT-15 colon
UACC-62 melanoma = test system: UACC-62 melanoma
786-0 renal = test system: 786-0 renal
SF-539 CNS = test system: SF-539 CNS
HCC-2998 colon = test system: HCC-2998 colon
RXF 393 renal = test system: RXF 393 renal
ACHN renal = test system: ACHN renal
CAKI-1 renal = test system: CAKI-1 renal
HOP-62 NSCLC = test system: HOP-62 NSCLC
RPMI-8226 leukemia = test system: RPMI-8226 leukemia
HOP-18 NSCLC = test system: HOP-18 NSCLC
SNB-19 CNS = test system: SNB-19 CNS
CCRF-CEM leukemia = test system: CCRF-CEM leukemia
SK-MEL-28 melanoma = test system: SK-MEL-28 melanoma
DLD-1 colon = test system: DLD-1 colon
TK-10 renal = test system: TK-10 renal
SK-MEL-5 melanoma = test system: SK-MEL-5 melanoma
K-562 leukemia = test system: K-562 leukemia
SNB-75 CNS = test system: SNB-75 CNS
KM20L2 colon = test system: KM20L2 colon
SW-620 colon = test system: SW-620 colon
SK-OV-3 ovarian = test system: SK-OV-3 ovarian
NCI-H460 lung = test system: NCI-H460 lung
UO-31 renal = test system: UO-31 renal
XF 498 CNS = test system: XF 498 CNS
A498 renal = test system: A498 renal
LXFL 529 NSCLC = test system: LXFL 529 NSCLC
OVCAR-8 ovarian = test system: OVCAR-8 ovarian
HT29 colon = test system: HT29 colon
A549 NSCLC = test system: A549 NSCLC
KM12 colon = test system: KM12 colon
UACC-257 melanoma = test system: UACC-257 melanoma
MOLT-4 leukemia = test system: MOLT-4 leukemia
M14 melanoma = test system: M14 melanoma
HL-60(TB) leukemia = test system: HL-60(TB) leukemia
NCI-H226 lung = test system: NCI-H226 lung
NCI-H522 lung = test system: NCI-H522 lung
SK-MEL-2 melanoma = test system: SK-MEL-2 melanoma
OVCAR-4 ovarian = test system: OVCAR-4 ovarian
DMS 273 small cell lung = test system: DMS 273 small cell lung
M19-MEL melanoma = test system: M19-MEL melanoma
DMS 114 small cell lung = test system: DMS 114 small cell lung
SN12C renal = test system: SN12C renal
EKVX NSCLC = test system: EKVX NSCLC
NCI-H23 lung = test system: NCI-H23 lung
SF-268 CNS = test system: SF-268 CNS
U251 CNS = test system: U251 CNS
OVCAR-3 ovarian = test system: OVCAR-3 ovarian
LOX IMVI melanoma = test system: LOX IMVI melanoma
SNB-78 CNS = test system: SNB-78 CNS
MALME-3M melanoma = test system: MALME-3M melanoma
COLO 205 colon = test system: COLO 205 colon

## CN(C)c1nc(N(C)C)sc(=O)n1
HOP-92 NSCLC
  TGI: > 100 µM
OVCAR-5 ovarian
  TGI: > 100 µM
SR leukemia
  TGI: > 100 µM
IGROV1 ovarian
  TGI: > 100 µM
SF-295 CNS
  TGI: > 100 µM
HCT-15 colon
  TGI: > 100 µM
UACC-62 melanoma
  TGI: > 100 µM
786-0 renal
  TGI: > 100 µM
SF-539 CNS
  TGI: > 100 µM
HCC-2998 colon
  TGI: > 100 µM
RXF 393 renal
  TGI: > 100 µM
ACHN renal
  TGI: > 100 µM
CAKI-1 renal
  TGI: > 100 µM
HOP-62 NSCLC
  TGI: > 100 µM
RPMI-8226 leukemia
  TGI: > 100 µM
HOP-18 NSCLC
  TGI: > 100 µM
SNB-19 CNS
  TGI: > 100 µM
CCRF-CEM leukemia
  TGI: > 100 µM
SK-MEL-28 melanoma
  TGI: > 100 µM
DLD-1 colon
  TGI: > 100 µM
TK-10 renal
  TGI: > 100 µM
SK-MEL-5 melanoma
  TGI: > 100 µM
K-562 leukemia
  TGI: > 100 µM
SNB-75 CNS
  TGI: > 100 µM
KM20L2 colon
  TGI: > 100 µM
SW-620 colon
  TGI: > 100 µM
SK-OV-3 ovarian
  TGI: > 100 µM
NCI-H460 lung
  TGI: > 100 µM
UO-31 renal
  TGI: > 100 µM
XF 498 CNS
  TGI: > 100 µM
A498 renal
  TGI: > 100 µM
LXFL 529 NSCLC
  TGI: > 100 µM
OVCAR-8 ovarian
  TGI: > 100 µM
HT29 colon
  TGI: > 100 µM
A549 NSCLC
  TGI: > 100 µM
KM12 colon
  TGI: > 100 µM
UACC-257 melanoma
  TGI: > 100 µM
MOLT-4 leukemia
  TGI: > 100 µM
M14 melanoma
  TGI: > 100 µM
HL-60(TB) leukemia
  TGI: > 100 µM
NCI-H226 lung
  TGI: > 100 µM
NCI-H522 lung
  TGI: > 100 µM
SK-MEL-2 melanoma
  TGI: > 100 µM
OVCAR-4 ovarian
  TGI: > 100 µM
DMS 273 small cell lung
  TGI: > 100 µM
M19-MEL melanoma
  TGI: > 100 µM
DMS 114 small cell lung
  TGI: > 100 µM
SN12C renal
  TGI: > 100 µM
EKVX NSCLC
  TGI: > 100 µM
NCI-H23 lung
  TGI: > 100 µM
SF-268 CNS
  TGI: > 100 µM
U251 CNS
  TGI: > 100 µM

## O=C1OC(c2cccc(C(F)(F)F)c2)(c2cccc(C(F)(F)F)c2)c2ccc3ccccc3c21
HOP-92 NSCLC
  TGI: > 100 µM
OVCAR-5 ovarian
  GI50: > 100 µM
  TGI: > 100 µM
OVCAR-3 ovarian
  GI50: 22.4 µM
  TGI: > 100 µM
IGROV1 ovarian
  GI50: > 100 µM
  TGI: > 100 µM
LOX IMVI melanoma
  GI50: > 100 µM
  TGI: > 100 µM
SF-295 CNS
  TGI: > 100 µM
HCT-15 colon
  TGI: > 100 µM
UACC-62 melanoma
  GI50: > 100 µM
  TGI: > 100 µM
786-0 renal
  GI50: > 100 µM
  TGI: > 100 µM
SNB-78 CNS
  GI50: > 100 µM
  TGI: > 100 µM
SF-539 CNS
  TGI: > 100 µM
HCC-2998 colon
  GI50: > 100 µM
  TGI: > 100 µM
RXF 393 renal
  TGI: > 100 µM
ACHN renal
  TGI: > 100 µM
CAKI-1 renal
  TGI: > 100 µM
HOP-62 NSCLC
  GI50: > 100 µM
  TGI: > 100 µM
RPMI-8226 leukemia
  GI50: 7.56 µM
  TGI: > 100 µM
HOP-18 NSCLC
  GI50: > 100 µM
  TGI: > 100 µM
SNB-19 CNS
  TGI: > 100 µM
CCRF-CEM leukemia
  GI50: 9.13 µM
  TGI: > 100 µM
SK-MEL-28 melanoma
  GI50: > 100 µM
  TGI: > 100 µM
DLD-1 colon
  GI50: > 100 µM
  TGI: > 100 µM
TK-10 renal
  GI50: > 100 µM
  TGI: > 100 µM
SK-MEL-5 melanoma
  GI50: 5.26 µM
  TGI: > 100 µM
K-562 leukemia
  GI50: 4.29 µM
  TGI: > 100 µM
SNB-75 CNS
  GI50: > 100 µM
  TGI: > 100 µM
KM20L2 colon
  TGI: > 100 µM
SW-620 colon
  GI50: > 100 µM
  TGI: > 100 µM
SK-OV-3 ovarian
  GI50: > 100 µM
  TGI: > 100 µM
UO-31 renal
  GI50: > 100 µM
  TGI: > 100 µM
XF 498 CNS
  TGI: > 100 µM
MALME-3M melanoma
  GI50: > 100 µM
  TGI: > 100 µM
A498 renal
  GI50: > 100 µM
  TGI: > 100 µM
LXFL 529 NSCLC
  GI50: 7.26 µM
  TGI: > 100 µM
OVCAR-8 ovarian
  GI50: > 100 µM
  TGI: > 100 µM
A549 NSCLC
  GI50: > 100 µM
  TGI: > 100 µM
COLO 205 colon
  GI50: > 100 µM
  TGI: > 100 µM
KM12 colon
  TGI: > 100 µM
UACC-257 melanoma
  TGI: > 100 µM
MOLT-4 leukemia
  GI50: 7.21 µM
  TGI: > 100 µM
M14 melanoma
  GI50: > 100 µM
  TGI: > 100 µM
HL-60(TB) leukemia
  TGI: > 100 µM
NCI-H226 lung
  TGI: > 100 µM
SK-MEL-2 melanoma
  GI50: > 100 µM
  TGI: > 100 µM
OVCAR-4 ovarian
  GI50: > 100 µM
  TGI: > 100 µM
DMS 273 small cell lung
  GI50: > 100 µM
  TGI: > 100 µM
DMS 114 small cell lung
  GI50: 4.44 µM
  TGI: > 100 µM
SN12C renal
  GI50: > 100 µM
  TGI: > 100 µM
EKVX NSCLC
  GI50: > 100 µM
  TGI: > 100 µM
NCI-H23 lung
  GI50: 3.92 µM
  TGI: > 100 µM
SF-268 CNS
  TGI: > 100 µM
U251 CNS
  TGI: > 100 µM

— PubChem BioAssay (NCI)
